Reference: ChEMBL document CHEMBL1146965, “Pyridone derivatives as potent and selective VLA-4 integrin antagonists” (Bioorg Med Chem Lett, 2006)
One block for each compound: values may come before it.

How the values were obtained:
Type in all cases: cell-based
Integrin alpha-4/beta-1 = Integrin alpha-4/beta-1 (Homo sapiens, UniProt P05556+P13612); test: Binding affinity to integrin alpha-4-beta-1 expressed in jurkat J6 cells
Integrin alpha-4/beta-7 = biological target: T1, Integrin alpha-4/beta-7 (Homo sapiens, UniProt P13612+P26010); test: Binding affinity to integrin alpha-4-beta-7 expressed in jurkat J6 cells
T1 sequence (P13612 whole entry): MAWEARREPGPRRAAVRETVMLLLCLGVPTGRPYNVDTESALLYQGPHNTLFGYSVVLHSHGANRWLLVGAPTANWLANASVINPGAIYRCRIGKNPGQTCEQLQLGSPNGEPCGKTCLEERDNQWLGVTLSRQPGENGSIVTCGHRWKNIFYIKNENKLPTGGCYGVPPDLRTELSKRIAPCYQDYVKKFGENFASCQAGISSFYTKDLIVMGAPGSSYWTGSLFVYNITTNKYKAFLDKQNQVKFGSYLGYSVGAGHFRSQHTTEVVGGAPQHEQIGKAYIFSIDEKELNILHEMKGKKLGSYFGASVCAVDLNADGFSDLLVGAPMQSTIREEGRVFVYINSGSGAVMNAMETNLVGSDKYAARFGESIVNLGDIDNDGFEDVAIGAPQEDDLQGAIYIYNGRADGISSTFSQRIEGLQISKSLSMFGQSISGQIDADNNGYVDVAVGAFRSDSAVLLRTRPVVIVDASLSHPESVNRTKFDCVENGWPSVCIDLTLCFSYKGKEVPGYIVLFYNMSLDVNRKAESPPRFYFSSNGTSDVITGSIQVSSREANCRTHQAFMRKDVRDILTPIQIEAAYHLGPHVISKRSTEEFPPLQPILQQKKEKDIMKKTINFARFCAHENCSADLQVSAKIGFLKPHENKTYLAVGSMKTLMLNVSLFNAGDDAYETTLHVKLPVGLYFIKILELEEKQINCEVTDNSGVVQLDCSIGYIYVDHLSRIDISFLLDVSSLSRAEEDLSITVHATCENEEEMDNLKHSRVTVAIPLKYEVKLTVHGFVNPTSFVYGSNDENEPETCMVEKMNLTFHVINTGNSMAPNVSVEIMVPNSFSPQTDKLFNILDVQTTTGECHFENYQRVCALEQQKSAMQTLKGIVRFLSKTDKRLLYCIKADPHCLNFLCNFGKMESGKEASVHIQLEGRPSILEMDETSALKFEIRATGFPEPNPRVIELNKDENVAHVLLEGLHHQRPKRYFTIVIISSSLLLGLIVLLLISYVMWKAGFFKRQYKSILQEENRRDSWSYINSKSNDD
T1 sequence (P26010 whole entry): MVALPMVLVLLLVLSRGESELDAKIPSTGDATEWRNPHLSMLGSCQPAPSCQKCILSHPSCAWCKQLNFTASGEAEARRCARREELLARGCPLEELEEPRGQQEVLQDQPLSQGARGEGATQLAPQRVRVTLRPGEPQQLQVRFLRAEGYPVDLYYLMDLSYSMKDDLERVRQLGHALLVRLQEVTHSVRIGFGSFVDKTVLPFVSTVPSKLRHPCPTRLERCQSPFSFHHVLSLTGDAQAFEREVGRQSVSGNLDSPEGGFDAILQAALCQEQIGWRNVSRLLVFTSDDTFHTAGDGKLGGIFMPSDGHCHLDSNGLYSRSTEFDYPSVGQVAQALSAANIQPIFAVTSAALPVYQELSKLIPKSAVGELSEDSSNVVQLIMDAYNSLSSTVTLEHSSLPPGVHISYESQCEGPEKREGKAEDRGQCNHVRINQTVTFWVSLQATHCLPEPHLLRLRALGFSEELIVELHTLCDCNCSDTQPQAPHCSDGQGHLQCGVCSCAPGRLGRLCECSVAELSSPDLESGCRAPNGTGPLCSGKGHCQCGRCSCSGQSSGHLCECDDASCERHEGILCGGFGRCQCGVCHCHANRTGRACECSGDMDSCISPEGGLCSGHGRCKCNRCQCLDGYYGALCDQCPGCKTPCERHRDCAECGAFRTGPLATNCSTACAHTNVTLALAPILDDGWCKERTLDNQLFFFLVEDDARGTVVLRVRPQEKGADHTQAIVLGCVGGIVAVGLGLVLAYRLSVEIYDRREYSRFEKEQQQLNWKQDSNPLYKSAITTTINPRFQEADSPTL

Integrin alpha-V/beta-3 = Integrin alpha-V/beta-3 (Homo sapiens, UniProt P05106+P06756); test: Binding affinity to integrin alphavbeta3 expressed in jurkat J6 cells
Integrin alpha-V/beta-3, sequence (P05106 27-788 limits assumed): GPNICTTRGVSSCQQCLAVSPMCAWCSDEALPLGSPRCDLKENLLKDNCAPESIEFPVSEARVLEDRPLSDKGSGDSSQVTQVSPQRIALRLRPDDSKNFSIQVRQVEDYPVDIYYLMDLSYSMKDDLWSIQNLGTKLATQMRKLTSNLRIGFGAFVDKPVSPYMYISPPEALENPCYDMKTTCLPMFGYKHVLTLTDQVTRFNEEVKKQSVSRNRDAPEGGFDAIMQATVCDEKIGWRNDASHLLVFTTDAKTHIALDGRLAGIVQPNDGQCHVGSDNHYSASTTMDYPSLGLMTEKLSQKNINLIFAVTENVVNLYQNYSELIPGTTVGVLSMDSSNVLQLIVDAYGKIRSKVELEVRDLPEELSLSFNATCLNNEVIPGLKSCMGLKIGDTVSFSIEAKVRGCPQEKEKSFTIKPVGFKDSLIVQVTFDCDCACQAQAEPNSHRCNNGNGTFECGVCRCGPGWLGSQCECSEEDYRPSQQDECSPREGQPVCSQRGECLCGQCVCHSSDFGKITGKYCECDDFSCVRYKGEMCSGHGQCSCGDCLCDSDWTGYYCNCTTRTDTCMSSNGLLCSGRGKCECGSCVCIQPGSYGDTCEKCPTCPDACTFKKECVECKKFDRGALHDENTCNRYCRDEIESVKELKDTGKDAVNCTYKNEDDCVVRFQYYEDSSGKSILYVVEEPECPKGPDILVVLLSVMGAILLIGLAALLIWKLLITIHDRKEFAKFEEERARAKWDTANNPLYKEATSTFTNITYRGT
Integrin alpha-V/beta-3, sequence (P06756 31-889 partner limits assumed): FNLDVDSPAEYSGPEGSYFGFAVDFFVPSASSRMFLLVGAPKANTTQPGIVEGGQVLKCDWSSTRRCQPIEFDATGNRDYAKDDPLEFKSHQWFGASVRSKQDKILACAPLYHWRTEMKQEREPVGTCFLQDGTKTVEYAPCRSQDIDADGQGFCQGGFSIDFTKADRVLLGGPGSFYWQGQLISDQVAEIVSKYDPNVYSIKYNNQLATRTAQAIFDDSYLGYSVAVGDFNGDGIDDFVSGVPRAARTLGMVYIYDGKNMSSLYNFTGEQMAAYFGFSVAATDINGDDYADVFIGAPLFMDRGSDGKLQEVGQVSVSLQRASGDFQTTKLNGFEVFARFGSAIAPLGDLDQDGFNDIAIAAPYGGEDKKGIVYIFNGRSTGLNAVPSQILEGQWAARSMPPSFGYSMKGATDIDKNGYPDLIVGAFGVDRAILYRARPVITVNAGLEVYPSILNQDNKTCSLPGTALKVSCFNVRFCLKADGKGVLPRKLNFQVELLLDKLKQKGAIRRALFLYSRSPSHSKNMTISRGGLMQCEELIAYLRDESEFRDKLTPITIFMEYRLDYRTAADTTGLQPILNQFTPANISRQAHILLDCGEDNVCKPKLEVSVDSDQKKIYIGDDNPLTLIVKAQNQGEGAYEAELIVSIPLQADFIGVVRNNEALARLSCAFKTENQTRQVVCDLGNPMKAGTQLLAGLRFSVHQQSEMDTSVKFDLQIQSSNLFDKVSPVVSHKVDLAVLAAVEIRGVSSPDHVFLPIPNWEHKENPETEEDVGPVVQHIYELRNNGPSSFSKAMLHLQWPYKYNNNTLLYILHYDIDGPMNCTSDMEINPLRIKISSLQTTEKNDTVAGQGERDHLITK
Integrin alpha-V/beta-3, sequence (P06756 891-1048 partner limits assumed): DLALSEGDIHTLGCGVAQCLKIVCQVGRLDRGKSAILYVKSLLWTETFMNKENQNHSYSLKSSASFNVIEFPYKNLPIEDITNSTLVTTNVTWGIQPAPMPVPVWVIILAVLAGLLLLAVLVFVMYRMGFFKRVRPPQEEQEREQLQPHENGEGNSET

Integrin alpha-V/beta-6 = Integrin alpha-V/beta-6 (Homo sapiens, UniProt P06756+P18564); test: Binding affinity to integrin alpha-v-beta-6 expressed in jurkat J6 cells
Integrin alpha-V/beta-6, sequence (P06756 31-889 limits assumed): as the sequence (P06756 31-889 partner limits assumed) above
Integrin alpha-V/beta-6, sequence (P06756 891-1048 limits assumed): as the sequence (P06756 891-1048 partner limits assumed) above
Integrin alpha-V/beta-6, sequence (P18564 22-788 limits assumed): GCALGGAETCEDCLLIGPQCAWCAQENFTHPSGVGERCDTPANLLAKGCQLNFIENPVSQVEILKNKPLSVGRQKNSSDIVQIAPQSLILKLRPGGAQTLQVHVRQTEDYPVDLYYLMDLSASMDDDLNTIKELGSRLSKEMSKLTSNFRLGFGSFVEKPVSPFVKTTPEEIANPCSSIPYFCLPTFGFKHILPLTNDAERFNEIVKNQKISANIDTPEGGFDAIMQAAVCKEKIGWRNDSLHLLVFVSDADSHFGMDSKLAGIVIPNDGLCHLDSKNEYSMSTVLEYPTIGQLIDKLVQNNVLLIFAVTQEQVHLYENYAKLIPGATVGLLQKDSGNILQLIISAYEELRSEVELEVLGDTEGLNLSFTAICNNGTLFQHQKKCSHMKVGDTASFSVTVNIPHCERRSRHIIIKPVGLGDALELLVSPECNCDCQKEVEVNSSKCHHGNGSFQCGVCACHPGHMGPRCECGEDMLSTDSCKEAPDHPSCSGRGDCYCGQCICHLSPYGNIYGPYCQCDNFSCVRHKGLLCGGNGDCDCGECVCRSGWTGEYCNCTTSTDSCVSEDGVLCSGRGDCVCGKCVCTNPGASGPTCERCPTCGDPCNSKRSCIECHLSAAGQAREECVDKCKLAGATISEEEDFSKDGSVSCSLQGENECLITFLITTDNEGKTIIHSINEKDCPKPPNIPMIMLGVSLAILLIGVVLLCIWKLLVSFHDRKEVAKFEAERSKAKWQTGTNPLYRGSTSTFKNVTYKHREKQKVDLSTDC

[1] = biological target: Integrin alpha-IIb/beta-3 (Homo sapiens, UniProt P05106+P08514); test: Binding affinity to integrin […] expressed in jurkat J6 cells
Integrin alpha-IIb/beta-3, sequence (P05106 27-788 limits assumed): as the sequence (P05106 27-788 limits assumed) above
Integrin alpha-IIb/beta-3, sequence (P08514 32-887 limits assumed): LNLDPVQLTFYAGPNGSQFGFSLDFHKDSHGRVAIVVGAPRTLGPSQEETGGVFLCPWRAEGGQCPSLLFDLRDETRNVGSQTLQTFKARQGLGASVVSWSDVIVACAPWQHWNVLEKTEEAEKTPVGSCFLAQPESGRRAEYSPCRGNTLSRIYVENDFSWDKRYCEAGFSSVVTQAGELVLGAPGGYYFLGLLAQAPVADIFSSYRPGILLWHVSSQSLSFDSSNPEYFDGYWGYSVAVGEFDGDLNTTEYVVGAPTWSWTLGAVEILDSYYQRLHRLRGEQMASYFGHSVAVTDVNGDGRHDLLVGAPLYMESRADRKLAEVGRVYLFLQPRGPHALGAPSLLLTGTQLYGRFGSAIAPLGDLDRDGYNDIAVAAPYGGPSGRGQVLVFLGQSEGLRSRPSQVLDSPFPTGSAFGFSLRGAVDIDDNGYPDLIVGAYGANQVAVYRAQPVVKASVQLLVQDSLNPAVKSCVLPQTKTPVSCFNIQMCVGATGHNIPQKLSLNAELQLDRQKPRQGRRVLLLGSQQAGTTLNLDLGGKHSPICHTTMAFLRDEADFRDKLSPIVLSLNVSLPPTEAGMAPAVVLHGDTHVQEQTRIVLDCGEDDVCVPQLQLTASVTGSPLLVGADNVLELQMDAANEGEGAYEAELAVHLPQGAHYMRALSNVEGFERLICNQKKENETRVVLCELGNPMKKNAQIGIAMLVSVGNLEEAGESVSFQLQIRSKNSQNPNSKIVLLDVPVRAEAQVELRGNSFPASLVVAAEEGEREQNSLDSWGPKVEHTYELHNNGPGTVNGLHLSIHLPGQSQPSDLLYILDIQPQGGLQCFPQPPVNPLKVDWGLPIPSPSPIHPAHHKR
Integrin alpha-IIb/beta-3, sequence (P08514 891-1039 limits assumed): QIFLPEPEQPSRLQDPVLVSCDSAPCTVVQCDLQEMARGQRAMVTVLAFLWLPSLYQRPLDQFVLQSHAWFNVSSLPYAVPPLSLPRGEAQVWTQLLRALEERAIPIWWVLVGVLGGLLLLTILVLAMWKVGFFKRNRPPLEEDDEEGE

Integrin alpha-5/beta-1 = Integrin alpha-5/beta-1 (Homo sapiens, UniProt P05556+P08648); test: Binding affinity to integrin alpha-5-beta-1 expressed in jurkat J6 cells

Integrin alpha-4/beta-1, sequence (P05556 whole entry, one chain of several): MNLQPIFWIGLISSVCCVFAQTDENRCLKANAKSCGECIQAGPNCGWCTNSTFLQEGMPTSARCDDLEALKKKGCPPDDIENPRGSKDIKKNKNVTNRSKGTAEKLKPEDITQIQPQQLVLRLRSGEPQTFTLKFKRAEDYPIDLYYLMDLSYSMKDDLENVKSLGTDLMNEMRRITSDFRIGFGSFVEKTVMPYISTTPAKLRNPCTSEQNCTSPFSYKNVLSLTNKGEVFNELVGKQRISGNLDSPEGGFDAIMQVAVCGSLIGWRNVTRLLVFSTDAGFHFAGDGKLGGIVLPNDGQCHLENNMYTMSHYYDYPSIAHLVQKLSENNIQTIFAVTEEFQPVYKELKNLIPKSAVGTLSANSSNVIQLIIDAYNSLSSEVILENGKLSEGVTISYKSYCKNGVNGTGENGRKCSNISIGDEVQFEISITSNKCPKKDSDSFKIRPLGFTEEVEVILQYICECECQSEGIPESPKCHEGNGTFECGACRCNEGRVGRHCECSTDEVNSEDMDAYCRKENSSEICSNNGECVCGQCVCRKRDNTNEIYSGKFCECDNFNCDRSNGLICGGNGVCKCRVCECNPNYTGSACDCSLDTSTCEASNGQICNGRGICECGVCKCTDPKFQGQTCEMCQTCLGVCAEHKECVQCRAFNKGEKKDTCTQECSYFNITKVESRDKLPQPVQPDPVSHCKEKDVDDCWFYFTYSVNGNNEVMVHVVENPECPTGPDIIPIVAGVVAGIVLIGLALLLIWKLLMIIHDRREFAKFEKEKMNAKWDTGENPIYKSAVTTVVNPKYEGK

SMILES: Cc1ccccc1NC(=O)Nc1ccc(-c2cccn(-c3ccc(CCC(=O)O)cc3)c2=O)cc1
Ki (Integrin alpha-4/beta-1): > 1000 nM

SMILES: COc1cc(CC(=O)Nc2ccc([C@H](C)CC(=O)O)cc2)ccc1NC(=O)Nc1ccccc1C
Ki (Integrin alpha-4/beta-1): 0.794 nM

SMILES: Cc1ccccc1NC(=O)Nc1ccc(-c2cccn(Cc3ccccc3CCC(=O)O)c2=O)cc1
Ki (Integrin alpha-4/beta-1): 398 nM

SMILES: Cc1ccccc1NC(=O)Nc1ccc(-c2cnn(Cc3ccc(CCC(=O)O)cc3)c2)cc1
Ki (Integrin alpha-4/beta-1): > 1000 nM

SMILES: COc1cc(-c2ccn(Cc3ccc(CCC(=O)O)cc3)n2)ccc1NC(=O)Nc1ccccc1C
Ki (Integrin alpha-4/beta-1): 25.1 nM

SMILES: Cc1ccccc1NC(=O)Nc1ccc(-c2ncn(Cc3ccc(CCC(=O)O)cc3)n2)cc1
Ki (Integrin alpha-4/beta-1): 501 nM

SMILES: Cc1ccccc1NC(=O)Nc1ccc(-c2cccn(Cc3ccc(CC(=O)O)cc3)c2=O)cc1
Ki (Integrin alpha-4/beta-1): 251 nM

SMILES: Cc1ccccc1NC(=O)Nc1ccc(-c2cccn(Cc3cccc(CCC(=O)O)c3)c2=O)cc1
Ki (Integrin alpha-4/beta-1): 3.98 nM

SMILES: Cc1ccccc1NC(=O)Nc1ccc(-c2cccn(Cc3ccc(CCC(=O)O)cc3)c2=O)cc1
Ki (Integrin alpha-4/beta-7): > 10000 nM
Ki (Integrin alpha-V/beta-3): > 10000 nM
Ki (Integrin alpha-V/beta-6): > 10000 nM
Ki [1]: > 10000 nM
Ki (Integrin alpha-4/beta-1): 2 nM
Ki (Integrin alpha-5/beta-1): > 10000 nM

Further lines, results first:

Ki (Integrin alpha-4/beta-1): > 100000 nM
SMILES: Cc1ccccc1NC(=O)Nc1ccc(-c2cn(Cc3ccc(CCC(=O)O)cc3)cn2)cc1

Ki (Integrin alpha-4/beta-1): 251 nM
SMILES: Cc1ccccc1NC(=O)Nc1ccc(-c2ccn(Cc3ccc(CCC(=O)O)cc3)n2)cc1

Ki (Integrin alpha-4/beta-1): 0.501 nM
SMILES: COc1cc(-c2cccn(Cc3ccc(CCC(=O)O)cc3)c2=O)ccc1NC(=O)Nc1ccccc1C

Ki (Integrin alpha-4/beta-1): 63.1 nM
SMILES: Cc1ccccc1NC(=O)Nc1ccc(CC(=O)Nc2ccc([C@H](C)CC(=O)O)cc2)cc1

Ki (Integrin alpha-4/beta-1): > 1000 nM
SMILES: COc1cc(-c2nnc(Cc3ccc(CCC(=O)O)cc3)o2)ccc1NC(=O)Nc1ccccc1C

Ki (Integrin alpha-4/beta-1): 316 nM
SMILES: Cc1ccccc1NC(=O)Nc1ccc(-c2cccn(Cc3ccc(C(=O)O)cc3)c2=O)cc1
